Measurements: ChEMBL document CHEMBL4665643 (Bioorg Med Chem Lett, 2019)

Experiments:
[1] = biological target: CDK8/Cyclin C (Homo sapiens) (UniProt P49336+P24863); experiment: Inhibition of tracer 236 binding to recombinant human His-tagged full length CDK8/Cyclin C expressed in baculovirus expression system at 0.1 uM incubated for 60 mins by Lanthascreen assay relative to control
[2] = biological target: RAC-alpha serine/threonine-protein kinase (Homo sapiens) (UniProt P31749); experiment: Inhibition of recombinant human His-tagged full length AKT1 expressed in baculovirus expression system using Ser/Thr 06 as substrate at 0.1 uM incubated for 60 mins by Z'-Lyte assay relative to control
RAC-alpha serine/threonine-protein kinase (Homo sapiens), sequence (P31749 whole entry): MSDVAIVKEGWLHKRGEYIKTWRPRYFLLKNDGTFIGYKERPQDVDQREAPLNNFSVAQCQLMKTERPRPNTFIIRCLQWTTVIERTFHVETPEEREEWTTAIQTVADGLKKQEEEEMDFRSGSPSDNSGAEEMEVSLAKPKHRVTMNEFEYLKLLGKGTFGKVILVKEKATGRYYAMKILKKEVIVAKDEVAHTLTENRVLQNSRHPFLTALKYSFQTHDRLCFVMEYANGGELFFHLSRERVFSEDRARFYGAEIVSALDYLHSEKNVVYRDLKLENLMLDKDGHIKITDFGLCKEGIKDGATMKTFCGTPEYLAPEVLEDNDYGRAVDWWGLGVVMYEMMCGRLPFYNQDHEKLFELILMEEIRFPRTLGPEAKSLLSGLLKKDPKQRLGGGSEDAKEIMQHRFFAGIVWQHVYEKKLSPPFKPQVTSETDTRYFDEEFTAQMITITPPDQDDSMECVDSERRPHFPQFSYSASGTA

[3] = biological target: T1, Inhibitor of nuclear factor kappa-B kinase subunit epsilon (Homo sapiens) (UniProt Q14164); experiment: Inhibition of recombinant human GST-tagged full length IKKepsilon expressed in baculovirus expression system using Ser/Thr 11 as substrate at 0.1 uM incubated for 60 mins by Z'-lyte assay relative to control
T1 sequence (whole entry): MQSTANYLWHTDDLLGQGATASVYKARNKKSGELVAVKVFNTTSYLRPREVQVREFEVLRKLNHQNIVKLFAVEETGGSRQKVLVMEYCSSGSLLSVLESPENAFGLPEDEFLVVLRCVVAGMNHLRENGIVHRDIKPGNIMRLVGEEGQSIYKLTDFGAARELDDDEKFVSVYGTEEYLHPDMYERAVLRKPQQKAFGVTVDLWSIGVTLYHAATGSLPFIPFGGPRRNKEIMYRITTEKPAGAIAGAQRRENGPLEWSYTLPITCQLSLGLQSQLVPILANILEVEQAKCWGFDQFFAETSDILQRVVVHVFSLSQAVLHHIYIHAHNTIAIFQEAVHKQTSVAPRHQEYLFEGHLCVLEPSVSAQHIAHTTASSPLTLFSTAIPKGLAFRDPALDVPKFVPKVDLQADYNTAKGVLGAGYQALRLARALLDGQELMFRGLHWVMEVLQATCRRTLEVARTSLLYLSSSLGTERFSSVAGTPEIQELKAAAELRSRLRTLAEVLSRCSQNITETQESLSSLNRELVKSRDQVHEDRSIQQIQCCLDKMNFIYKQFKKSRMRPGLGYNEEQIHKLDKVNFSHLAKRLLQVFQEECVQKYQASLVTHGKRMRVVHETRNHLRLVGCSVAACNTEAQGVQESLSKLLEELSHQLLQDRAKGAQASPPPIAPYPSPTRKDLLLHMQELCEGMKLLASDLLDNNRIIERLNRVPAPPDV

[4] = biological target: Insulin-like growth factor 1 receptor (Homo sapiens) (UniProt P08069); experiment: Inhibition of recombinant human His-tagged IGF1R (960 to 1397 residues) expressed in baculovirus expression system using Tyr 01 as substrate at 0.1 uM incubated for 60 mins by Z'-Lyte assay relative to control
Insulin-like growth factor 1 receptor (Homo sapiens), sequence (P08069 31-736 limits assumed): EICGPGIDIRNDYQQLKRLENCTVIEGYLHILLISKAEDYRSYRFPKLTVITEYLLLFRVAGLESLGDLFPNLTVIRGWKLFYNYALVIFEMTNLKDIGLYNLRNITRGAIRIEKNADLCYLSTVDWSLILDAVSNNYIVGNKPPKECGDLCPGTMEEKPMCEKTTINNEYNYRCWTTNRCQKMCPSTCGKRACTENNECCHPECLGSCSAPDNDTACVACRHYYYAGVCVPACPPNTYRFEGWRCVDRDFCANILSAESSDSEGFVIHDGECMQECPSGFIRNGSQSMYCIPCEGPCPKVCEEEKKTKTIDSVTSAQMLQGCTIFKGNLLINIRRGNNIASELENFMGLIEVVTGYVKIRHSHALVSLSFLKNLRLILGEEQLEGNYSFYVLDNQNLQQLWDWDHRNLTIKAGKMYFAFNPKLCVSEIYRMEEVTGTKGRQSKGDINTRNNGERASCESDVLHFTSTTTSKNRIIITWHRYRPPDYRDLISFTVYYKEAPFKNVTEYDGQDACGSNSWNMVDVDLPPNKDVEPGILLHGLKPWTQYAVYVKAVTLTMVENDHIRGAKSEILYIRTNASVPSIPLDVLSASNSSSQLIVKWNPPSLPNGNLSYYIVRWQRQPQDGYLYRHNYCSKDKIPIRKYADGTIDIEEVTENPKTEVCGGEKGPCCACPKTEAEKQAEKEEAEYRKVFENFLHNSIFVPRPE
Insulin-like growth factor 1 receptor (Homo sapiens), sequence (P08069 741-1367 limits assumed): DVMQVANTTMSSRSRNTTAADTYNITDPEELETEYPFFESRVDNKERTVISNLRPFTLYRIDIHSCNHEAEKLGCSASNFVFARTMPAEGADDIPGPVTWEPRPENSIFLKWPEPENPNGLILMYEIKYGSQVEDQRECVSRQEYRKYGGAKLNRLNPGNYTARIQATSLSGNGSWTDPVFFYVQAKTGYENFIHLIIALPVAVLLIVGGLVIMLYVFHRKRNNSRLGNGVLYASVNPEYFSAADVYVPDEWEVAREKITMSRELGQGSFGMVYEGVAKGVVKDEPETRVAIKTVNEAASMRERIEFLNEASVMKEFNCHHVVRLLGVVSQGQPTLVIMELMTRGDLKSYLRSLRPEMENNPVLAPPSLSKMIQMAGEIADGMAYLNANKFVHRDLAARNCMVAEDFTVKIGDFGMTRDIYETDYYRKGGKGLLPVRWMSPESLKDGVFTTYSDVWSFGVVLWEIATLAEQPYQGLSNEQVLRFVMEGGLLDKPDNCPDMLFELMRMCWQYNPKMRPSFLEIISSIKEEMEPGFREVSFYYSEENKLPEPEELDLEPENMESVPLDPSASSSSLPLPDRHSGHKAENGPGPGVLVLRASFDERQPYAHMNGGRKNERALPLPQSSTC

[5] = biological target: Tyrosine-protein kinase SYK (Homo sapiens) (UniProt P43405); experiment: Inhibition of recombinant human N-terminalGST-tagged full length SYK expressed in baculovirus expression system using Tyr 02 as substrate at 0.1 uM incubated for 60 mins by Z'-Lyte assay relative to control
[6] = biological target: T2, Phosphatidylinositol 4,5-bisphosphate 3-kinase catalytic subunit delta isoform (Homo sapiens) (UniProt O00329); experiment: Inhibition of recombinant human His-tagged full length PI3Kdelta expressed in baculovirus expression system using PIP:PS as substrate at 0.1 uM incubated for 60 mins by Adapta assay relative to control
T2 sequence (whole entry): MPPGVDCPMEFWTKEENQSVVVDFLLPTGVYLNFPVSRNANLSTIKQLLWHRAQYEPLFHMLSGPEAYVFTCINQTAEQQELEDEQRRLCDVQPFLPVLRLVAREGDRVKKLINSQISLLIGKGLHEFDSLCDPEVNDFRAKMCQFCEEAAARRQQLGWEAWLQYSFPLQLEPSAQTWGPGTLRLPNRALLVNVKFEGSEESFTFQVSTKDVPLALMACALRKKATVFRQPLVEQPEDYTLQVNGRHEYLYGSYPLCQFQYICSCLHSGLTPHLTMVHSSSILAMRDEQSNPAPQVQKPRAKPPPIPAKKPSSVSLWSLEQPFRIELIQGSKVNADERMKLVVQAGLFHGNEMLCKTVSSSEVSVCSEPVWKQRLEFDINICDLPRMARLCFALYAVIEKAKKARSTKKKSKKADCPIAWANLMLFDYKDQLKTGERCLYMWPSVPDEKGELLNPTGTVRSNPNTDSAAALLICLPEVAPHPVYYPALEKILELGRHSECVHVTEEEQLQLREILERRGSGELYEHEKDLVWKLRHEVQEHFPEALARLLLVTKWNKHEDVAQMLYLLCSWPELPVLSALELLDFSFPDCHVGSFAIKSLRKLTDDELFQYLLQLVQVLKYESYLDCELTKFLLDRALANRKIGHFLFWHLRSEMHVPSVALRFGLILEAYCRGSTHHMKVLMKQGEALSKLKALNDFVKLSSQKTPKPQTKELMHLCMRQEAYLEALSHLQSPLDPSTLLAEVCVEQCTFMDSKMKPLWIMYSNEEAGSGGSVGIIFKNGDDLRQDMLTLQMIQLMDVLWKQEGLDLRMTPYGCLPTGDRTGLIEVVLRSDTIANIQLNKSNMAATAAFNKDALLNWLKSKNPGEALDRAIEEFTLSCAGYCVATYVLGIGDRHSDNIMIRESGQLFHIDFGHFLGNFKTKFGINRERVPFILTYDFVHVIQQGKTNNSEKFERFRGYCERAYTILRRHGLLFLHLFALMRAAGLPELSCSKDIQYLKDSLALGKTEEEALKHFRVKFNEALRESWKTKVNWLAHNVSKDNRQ

Row | SMILES | inhibition [1] | inhibition [2] | Ratio IC50 (Homo sapiens) | inhibition [3] | inhibition [4] | inhibition [5] | inhibition [6]
1 | O=C(Nc1c[nH]nc1-c1cc(Cl)ccc1OC(F)F)c1cnn2cccnc12 | 38% | 1% | 15 | 8% | 9% | 8% | 7%
2 | O=C(Nc1c[nH]nc1-c1cc2ccccc2cc1OC(F)F)c1cnn2cccnc12 | 24% | -5% | 83 | 3% | 5% | 6% | 6%
3 | Cn1cc(NC(=O)c2cnn3cccnc23)c(-c2cc(Cl)ccc2OC(F)F)n1 | 14% | -6% | 47 | 5% | 8% | 7% | 6%
